The nature of data set [1]: Tissue binding assay (equilibrium dialysis), brain homogenate. The format is in vitro ADME. As to conditions: mouse brain homogenate, dialysis 4 hours at 37° C., pH 7.4. How it is done: (§1) Buffer preparation. A basic solution was prepared by dissolving 14.2 g/L Na2HPO4 and 8.77 g/L NaCl in deionized H2O. An acidic solution was prepared by dissolving 15.6 g/L NaH2PO4·2H2O and 8.77 g/L NaCl in deionized H2O. Using the acidic solution, the basic solution was then titrated to pH 7.4±0.1 and stored at 4° C. for up to 1 month. The stop solution was 100% CH3CN containing 200 ng/ml tolbutamide, 200 ng/ml labetalol and 50 ng/ml metformin.
(§2) Test method. Dialysis membrane strips were soaked in ultra-pure water at room temperature for ~1 hour. Each membrane strip containing 2 membranes was separated and soaked in 20:80 EtOH/H2O (v/v) for ~20 min, after which they were ready for use or were stored in the solution at 2-8° C. for up to 1 month. Prior to the experiment, the membrane was rinsed and soaked for 20 min in ultra-pure water. On the day of experiment, brain homogenate was thawed in a water bath at room temperature and incubated at 37° C. for 10 min before use. Test and control compounds were dissolved in DMSO to achieve 10 mM stock solutions. DMSO working solutions were prepared at 400 μM by diluting 10 μL of stock solution. To prepare the time zero (t=0) samples to be used for recovery determination, 50 μL aliquots of loading matrix were transferred in triplicate to the sample collection plate. The samples were immediately matched with opposite blank buffer to obtain a final volume of 100 μL of 1:1 matrix/dialysis buffer (v/v) in each well. 500 μL of stop solution were added to these t=0 samples. They were then stored at 2-8° C. pending further processes along with other post-dialysis samples. To load the dialysis device, an aliquot of 150 μL of the loading matrix was transferred to the donor side of each dialysis well in triplicate, and 150 μL of the dialysis buffer was loaded to the receiver side of the well. The dialysis plate was placed in a humidified incubator at 37° C. with 5% CO2 on a shaking platform that rotated slowly (about 100 rpm) for 4 hours. At the end of the dialysis, aliquots of 50 μL of samples were taken from both the buffer side and the matrix side of the dialysis device. These samples were transferred into new 96-well plates. Each sample was mixed with an equal volume of opposite blank matrix (buffer or matrix) to reach a final volume of 100 μL of 1:1 matrix/dialysis buffer (v/v) in each well. All samples were further processed by adding 500 μL of stop solution containing internal standards. The mixture was vortexed and centrifuged at 4000 rpm for about 20 min. An aliquot of 100 μL of supernatant of all the samples was then removed for LC-MS/MS analysis. The single blank samples were prepared by transferring 50 μL of blank matrix to a 96-well plate and adding 50 μL of blank PBS buffer to each well. Then the matrix-matched samples were further processed by adding 500 μL of stop solution containing internal standards, following the same sample processing method as the dialysis samples.
(§3) Data analysis. The % undiluted unbound, % undiluted bound and % recovery were calculated using the following equations: […]
(§4) where F is the analyte concentration or peak area ratio of analyte/internal standard on the buffer (receiver) side of the membrane; T is the analyte concentration or peak area ratio of analyte/internal standard on the matrix (donor) side of the membrane; To is the analyte concentration or the peak area ratio of analyte/internal standard in the loading matrix sample at time zero; and D is the dilution factor determined as 4 in this assay.

Data set [2] in a line: PK brain permeability after single oral gavage. It is filed as in vivo, C57BL/6 mice. Particulars: mice, 10 mg/kg oral, 2 hours post dose; for concentration at 2 h / Kp at 2 h: male, C57BL/6, mouse; for concentration at 2 h: po, 10 mg/kg; for Kp at 2 h: read-out: Kpu, u (unbound partitioning coefficient, Cb,u to Cp,u); for brain permeability (in words): statement on Table 3. How it is done:
The distribution of compounds into the brain in vivo was determined in C57BL/6 mice following single oral (po) gavage administration.
Test compounds were formulated at 1 mg/mL in 0.5% HPMC E4M, 0.2% Tween 80 in water to achieve solutions or homogenous suspensions suitable for po administration. Formulations were administered to 3 male C57BL/6 mice at a volume of 10 mL/kg resulting in a dose level of 10 mg/kg. Blood samples were collected at 1 and 2 hours post dose into tubes containing K2EDTA as anticoagulant, processed to plasma and stored at −60° C. or lower until LC-MS/MS analysis. Brains were harvested 2 hours post dose, rinsed with saline, dried, weighed and homogenised under ice cold conditions. Brain homogenates were stored at −60° C. or lower until LC-MS/MS analysis.
Dose formulation concentrations were verified using a LC-UV or LC-MS/MS method. Test compound concentrations in plasma and brain homogenate were quantitatively determined using LC-MS/MS methods developed in individual matrices against calibration curves with QC samples included and acceptance criteria as per CRO SOPs. Concentrations in brain homogenate were corrected for the dilution factor used to prepare the homogenate to give concentrations in whole brain tissue.
Plasma and brain concentration versus time data were reported and plotted in excel. The brain to plasma ratio at 2 hours post dose was calculated for each animal using the following equation:
Brain: plasma=brain concentration (ng/g) at 2 h/plasma concentration (ng/ml) at 2 h As only unbound test compound is available to exert an effect on the target, unbound plasma (Cp,u) and unbound brain (Cb,u) concentrations were calculated by correcting the total concentrations for the unbound fraction in plasma (fu,p) or brain (fu,b) determined from in vitro plasma protein or brain tissue binding assays using the following equations: […]
The unbound partitioning coefficient (Kpu,u) was then calculated based on the ratio of Cb,u to Cp,u using the following equation: […]
In these studies, mice were orally administrated a 10 mg/kg dose and sacrificed 2 hours post dose and tissue samples (brain homogenate and plasma) were analyzed subsequently as described above.

Data set [3] can be described thus: Tissue binding assay (equilibrium dialysis), plasma. The format is in vitro ADME. As to conditions: mouse plasma, dialysis 4 hours at 37° C., pH 7.4. The protocol:
[Worded in the source for another target; this target is reported under the same test.] as §1, §2, §3, §4
(In general: Equilibrium dialysis compares concentrations on both sides of a semipermeable membrane.)

Where [4] appears, read: brain, read-out: total brain conc.
Setting [5] is: brain, total corrected for unbound fraction in brain, read-out: free brain conc.
Setting [6] is: plasma, read-out: total plasma conc.
Setting [7] is: plasma, total corrected for unbound fraction in plasma, read-out: free plasma conc.

Consider eight compounds from patent US20260224582A1, “Heterobicyclic amides as inhibitors of CD38” (Cerevance, Inc., priority 2022, published 2026).

Like-named read-outs stand apart in the source and are kept apart here.

By fraction unbound is commonly meant free concentration divided by total concentration. A lower fraction unbound goes with little free substance.

Take `O=C(N[C@H]1CC[C@H](N2CC[C@H](F)C2)CC1)c1nc(-n2ccnc2)nn2cccc12` [Example 13, N-((1S,4r)-4-((S)-3-fluoropyrrolidin-1-yl)cyclohexyl)-2-(1H-imidazol-1-yl)pyrrolo[2,1-f][1,2,4]triazine-4-carboxamide]: the free fraction (fraction unbound) at 4 h in data set [1] came to 0.056; in data set [3], 0.22. Besides, the concentration at 2 h in data set [2] (setting [4]) was 3380 nM; in data set [2] (setting [5]), 189 nM; in data set [2] (setting [6]), 3660 nM; in data set [2] (setting [7]), 809 nM. Further, the Kp at 2 h in data set [2] (brain) was found to be 0.23. Besides, in data set [2], the “brain permeability (in words)” value is on record as “good brain permeability”.

Take `O=C(N[C@H]1CC[C@H](N2CCC(F)(F)C2)CC1)c1cn2ccnc2c(-n2ccnc2)n1` [Example 41, N-((1r,4r)-4-(3,3-difluoropyrrolidin-1-yl)cyclohexyl)-8-(1H-imidazol-1-yl) imidazo[1,2-a]pyrazine-6-carboxamide]: the unbound share (fraction unbound) at 4 h in data set [1] was 0.15; in data set [3] it was 0.2. Moreover, the concentration at 2 h was 1580 nM in data set [2] (setting [4]), 241 nM in data set [2] (setting [5]), 10600 nM in data set [2] (setting [6]) and 2160 nM in data set [2] (setting [7]). For the same compound, in data set [2] (brain), the Kp at 2 h was found to be 0.11. The “brain permeability (in words)” value in data set [2] is “good brain permeability”.

With `O=C(N[C@H]1CC[C@H](N2CC[C@@H](F)C2)CC1)c1nc(-n2ccnc2)nn2cccc12` [Example 14, N-((1R,4r)-4-((R)-3-fluoropyrrolidin-1-yl)cyclohexyl)-2-(1H-imidazol-1-yl)pyrrolo[2,1-f][1,2,4]triazine-4-carboxamide], the figures for the fraction unbound at 4 h in data set [1] and in data set [3] were 0.056 and 0.24, respectively. Further, the concentration at 2 h came out at 3320 nM in data set [2] (setting [4]), 181 nM in data set [2] (setting [5]), 3930 nM in data set [2] (setting [6]) and 959 nM in data set [2] (setting [7]). The Kp at 2 h in data set [2] (brain) came to 0.19. In addition, the “brain permeability (in words)” value in data set [2] was “good brain permeability”.

Turning to `O=C(N[C@H]1CC[C@H](NCC(F)(F)F)CC1)c1nc(-n2ccnc2)nn2cccc12` [Example 29, 2-(1H-imidazol-1-yl)-N-((1r,4r)-4-((2,2,2-trifluoroethyl)amino)cyclohexyl)pyrrolo[2,1-f][1,2,4]triazine-4-carboxamide], the fraction unbound at 4 h in data set [1] is 0.064; in data set [3] it was 0.044. The concentration at 2 h in data set [2] (setting [4]) stood at 4920 nM; in data set [2] (setting [5]), 319 nM; in data set [2] (setting [6]) it was 19100 nM; in data set [2] (setting [7]) it was 840 nM. The Kp at 2 h in data set [2] (brain) was 0.39. Besides, the “brain permeability (in words)” value in data set [2] was “good brain permeability”.

As to `O=C(N[C@H]1CC[C@H](N2CCC(F)(F)C2)CC1)c1cn2ncnc2c(-n2ccnc2)n1` [Example 48, N-((1r,4r)-4-(3,3-difluoropyrrolidin-1-yl)cyclohexyl)-8-(1H-imidazol-1-yl)-[1,2,4]triazolo[1,5-a]pyrazine-6-carboxamide], the results for the fraction unbound at 4 h in data set [1] and in data set [3] were 0.15 and 0.24, respectively. Moreover, the concentration at 2 h in data set [2] (setting [4]) was determined as 2570 nM; in data set [2] (setting [5]), 403 nM; in data set [2] (setting [6]) it was 8000 nM; in data set [2] (setting [7]), 1980 nM. For the same compound, the Kp at 2 h in data set [2] (brain) was 0.2. Also, the “brain permeability (in words)” value in data set [2] is “good brain permeability”.

`O=C(N[C@H]1CC[C@H](NCC(F)(F)F)CC1)c1nc(-n2ccnc2)nc2ncccc12` [Example 4, 2-(1H-imidazol-1-yl)-N-((1r,4r)-4-((2,2,2-trifluoroethyl)amino)cyclohexyl)pyrido[2,3-d]pyrimidine-4-carboxamide]: the fraction unbound at 4 h in data set [1] worked out at 0.41; in data set [3] it was 0.4. In addition, the concentration at 2 h in data set [2] (setting [4]) is 572 nM; in data set [2] (setting [5]), 236 nM; in data set [2] (setting [6]), 6310 nM; in data set [2] (setting [7]), 2540 nM. The Kp at 2 h in data set [2] (brain) came to 0.09. Moreover, in data set [2], the “brain permeability (in words)” value was “good brain permeability”.

On to `O=C(N[C@H]1CC[C@H](NCC(F)(F)F)CC1)c1cn2nccc2c(-n2ccnc2)n1` [Example 21, 4-(1H-imidazol-1-yl)-N-((1r,4r)-4-((2,2,2-trifluoroethyl)amino)cyclohexyl)pyrazolo[1,5-a]pyrazine-6-carboxamide], for which the figures for the fraction unbound at 4 h in data set [1] and in data set [3] were 0.34 and 0.3, respectively. For the same compound, the concentration at 2 h in data set [2] (setting [4]) is 1500 nM; in data set [2] (setting [5]), 507 nM; in data set [2] (setting [6]), 8220 nM; in data set [2] (setting [7]) it was 2470 nM. The Kp at 2 h in data set [2] (brain) stood at 0.2. Further, the “brain permeability (in words)” value in data set [2] is reported as “good brain permeability”.

Take `O=C(N[C@H]1CC[C@H](N2CC(F)(F)C2)CC1)c1cn2ncnc2c(-n2ccnc2)n1` [Example 45, N-((1r,4r)-4-(3,3-difluoroazetidin-1-yl)cyclohexyl)-8-(1H-imidazol-1-yl)-[1,2,4]triazolo[1,5-a]pyrazine-6-carboxamide]: the fraction unbound at 4 h in data set [1] came out at 0.15; in data set [3] it was 0.2. Besides, the concentration at 2 h in data set [2] (setting [4]) was 2160 nM; in data set [2] (setting [5]), 555 nM; in data set [2] (setting [6]), 9340 nM; in data set [2] (setting [7]), 3490 nM. In data set [2] (brain), the Kp at 2 h is 0.16. Also, the “brain permeability (in words)” value in data set [2] is given as “good brain permeability”.
